Data on eleven compounds can be found in patent US20070105789A1, “Combinatorial chemotherapy treatment using Na+/K+ ATPase inhibitors” (priority 2004, published 2007).

Data set [1] concerns A549(ROS) Sentinel Line. The experiment in a line: ROS levels by FACS in A549(ROS) cells. Format: cell-based, human. The following applies: normoxia, 4 hrs. Here is the method: Thirty minutes prior to the termination of incubation period, 2,7-dichlorofluorescin diacetate (CFH-DA, […]) was added to the cells and incubated for the last 30 min at 37° C. The ROS levels were determined by FACS analysis.

Data set [2] deals with Caki-1 human renal cancer xenograft. The format is in vivo, nude mice. The settings on record: for % TGI: Caki-1, Day 22; for % TGI / Final Tumor weight Day 22 (Mean): BNC-1 20 mg/ml s.c. pump, Cytoxan 300 or 100 ip; for Final Tumor weight Day 22 (Mean): tumor weight in mg. From the text: (§1) Female nude mice (nu/nu) between 5 and 6 weeks of age weighing approximately 20 g were implanted subcutaneously (s.c.) by trocar with fragments of human tumors harvested from s.c. grown tumors in nude mice hosts. […] Each group contains 8-10 mice, each of which was ear tagged and followed throughout the experiment.
(§2) The administration of drugs or controls began the day the animals were pair-matched (Day 1). […] Mice were weighed and tumor measurements were obtained using calipers twice weekly, starting Day 1. These tumor measurements were converted to mg tumor weight by standard formula, (W^2×L)/2. The experiment is terminated when the control group tumor size reached an average of about 1 gram. Upon termination, the mice were weighed, sacrificed and their tumors excised. The tumors were weighed and the mean tumor weight per group was calculated.

Data set [3] has as its system panel of 10 cancer cell lines. The experiment in a line: cytotoxicity against a panel of 10 cancer cell lines. The format is cell-based. The settings on record: read-out: median IC50.
The subject of data set [4] is VEGF. The experiment in a line: VEGF secretion in tumor cells. Format: cell-based. The following applies: FIG. 8.
Data set [5] has as its system cats. The settings on record: cited from earlier work.
Data set [6] concerns Na+/K+-ATPase. The settings on record: Erdmann E 1978; cited from earlier work.
The subject of data set [7] is Panc-1 human pancreatic xenograft. The experiment in a line: Panc-1 human pancreatic tumor xenograft in nude mice. Format: in vivo. The following applies: for Final Tumor weight Day 25 (Mean): BNC-1 20 mg/ml s.c. osmotic pump, tumor weight in mg.
From the text: as §1, §2
(§3) The control animals received pumps containing vehicle (50% DMSO in DMEM). The mice treated with standard chemotherapy agent received intra-peritoneal injections of Gemcitabine at 40 mg/kg every 3 days for 4 treatments (q3d×4). Each data point represent average tumor weight (n=8) and error bars indicate SEM.
as §3
(A xenograft is tissue or cells of one species grown in another, often human tumour cells in immunodeficient mice.)

The target in data set [8] is Na+/K+-ATPase α peptide isoforms. The settings on record: read-out: Kd of ouabain for the four α peptide isoforms; almost all mammalian species; cited from earlier work.
The nature of data set [9]: human pharmacokinetics (literature). The settings on record: species not stated.
Data set [10] relates to several different cancer cell lines. The data set can be described thus: proliferation of cancer cell lines (ouabain IC50). The format is cell-based. The settings on record: read-out: IC50 across several different cancer cell lines.
The conditions of data set [11]: cited from earlier work.
For data set [12], the system named is A549 human non-small-cell-lung carcinoma. The data set can be described thus: A549 human non-small-cell-lung carcinoma xenograft in nude mice. The settings on record: for % TGI: A549, Day 38; for Final Tumor weight Day 38 (Mean): A549, tumor weight in mg; for Final Tumor weight Day 38 (Mean) / % Weight Change at Day 38: BNC-1 20 mg/ml s.c. pump, Carboplatin 100 mg/kg ip; for % Weight Change at Day 38: A549 xenograft mice; for signs of tumor at the end of the experiment: A549 xenograft, 8 animals per group.
From the text: as §1, §2
Carboplatin (qldxl) was injected at 100 mg/kg (Carb).

For data set [13], the target named is T1, Na+/K+-ATPase (Canis lupus familiaris, UniProt P50997).
T1 construct: enzyme preparation from dog kidney (Sigma); purchased Sigma; host or cells: dog kidney tissue
The experiment in a line: Na+/K+-ATPase inhibition. Format: biochemical, dog. The protocol: (§4) Anti-prolerafitive IC50 values were determined by MTS assay using an A549 cell line. Na^+/K^+-ATPase inhibition IC50 values were obtained using enzyme preparation from dog kidney (Sigma).

Data set [14] concerns A549 cell line. The data set can be described thus: anti-proliferation MTS assay in A549 cell line. The settings on record: Homo sapiens. The format is cell-based. Here is the method:
as §4
For orientation: Tetrazolium dyes change colour on reduction, which living cells bring about.

Data set [15] concerns HIF-1α. The experiment in a line: Western blot using anti-HIF-1α antibody (Example XVI). The format is cell-based. The settings on record: 1 μM. On the technique in general: Immunoblotting shows a protein as a band on a membrane.
The test system of data set [16] is A549 Sentinel Line. The data set can be described thus: Sentinel Line reporter assay (beta-gal, FACS). The following applies: agent alone, 40 hrs, FACS. Format: cell-based, human. The protocol: The expression level of beta-galactosidase gene in sentinel lines was determined by using a fluorescent substrate fluorescein di-B-D-Galactopyranside (FDG, Marker Gene Tech, #M0250) introduced into cells by hypotonic shock. Cleavage by beta-galactosidase results in the production of free fluorescein, which is unable to cross the plasma membrane and is trapped inside the beta-gal positive cells. Briefly, the cells to be analyzed are trypsinized, and resuspended in PBS containing 2 mM FDG (diluted from a 10 mM stock prepared in 8:1:1 mixture of water: ethanol: DMSO). The cells were then shocked for 4 minutes at 37° C. and transferred to FACS tubes containing cold 1×PBS on ice. Samples were kept on ice for 30 minutes and analyzed by FACS in FLI channel.
Sentinel Line cells with beta-galactosidase reporter gene were plated at 1×10^5 cells/10 cm dish. […] After 40 hrs, the cells were trypsinized and the expression level of reporter gene was determined by FDG loading.
The reporter activity was measured by FACS analysis.

Data set [17] has as its system rats. The following applies: adult; cited from earlier work.
Where [18] appears, read: Panc-1, Gemcitabine 40 mg/kg q3d×4.

Molecules are shown by their SMILES. Like-named read-outs stand apart in the source and are kept apart here. Some results are limits rather than exact numbers.

The IC50 is the concentration at which inhibition is half-maximal. A word on the Kd: it is the free concentration of one partner at which half of the binding sites on the other are occupied at equilibrium, for simple one-to-one binding. As to `C[C@@H]1O[C@@H](O[C@H]2C[C@@H](O)[C@]3(CO)[C@H]4[C@H](O)C[C@]5(C)[C@@H](C6=CC(=O)OC6)CC[C@]5(O)[C@@H]4CC[C@]3(O)C2)[C@H](O)[C@H](O)[C@H]1O` [BNC-1, ouabain], the ROS production entry in data set [1] was “induces ROS production”. In addition, in [2], the “% TGI” value is 81.45%. Further, in data set [2] (Caki-1), the “Final Tumor weight Day 22 (Mean)” value was determined as 314.9. In addition, the IC50 in data set [3] came to 78 nM. Further, the “toxic serum concentration at day 1 (serum level at MTD)” value (mice) is “about 50±21 ng/ml”. Moreover, the “therapeutic serum concentration required to achieve >60% TGI” value (steady state, xenograft nude mouse) is given as “about 20±15 ng/ml”. Also, the “secretion of VEGF in tumor cells” value in data set [4] was “directly or indirectly inhibits”. Besides, in data set [5], the intravenous toxicity was 0.133 mg/kg and the “toxicity on duodenal administration” value was 5.3 mg/kg. The “order of Na+/K+-ATPase-inhibition” value in [6] was “Ouabain<Digoxin<Proscillaridin”. For the same compound, the “% TGI” value in data set [7] (Panc-1, Day 25, BNC-1 20 mg/ml s.c. pump, Gemcitabine 40 mg/kg q3d×4) is on record as 82.15%. Moreover, in [7] (setting [18]), the “Final Tumor weight Day 25 (Mean)” value is listed as 200. In [8], the Kd was at most 1 nM. For the same compound, the max. plasma concentration result in data set [9] is on record as “about 0.03 μg/mL”. Also, in data set [10], the IC50 lay in the range of 15 to 600 nM. In [11] (according to the literature), the “plasma half-life in human” value is “about 20 hours” and the “plasma half-life in human, range” value is 5 to 50 h. Further, in data set [12], the “% TGI” value was determined as 100.00%, the “Final Tumor weight Day 38 (Mean)” value is recorded as 0.0, the “% Weight Change at Day 38” value is recorded as 21% and the “signs of tumor at the end of the experiment” value is recorded as “none of the experimental animals showed any signs of tumor”.
Take `CC(=O)OC1C=C2CCC3C4=CC[C@H](c5ccc(=O)oc5)[C@@]4(C)CCC3[C@@]2(C)CC1` (some centres unmarked) [BNC-147]: the results for the IC50 in data set [13] and in [14] were 65000 nM and 11500 nM, respectively.
Consider `C[C@@H]1OC(OC2C=C3CCC4C5=CC[C@H](c6ccc(=O)oc6)[C@@]5(C)CCC4[C@@]3(C)CC2)[C@H](O)[C@H](O)[C@H]1O` (some centres unmarked) [BNC-151], for which the IC50 in [13] turned out to be 1380 nM; in [14], 260 nM. Besides, in [15], the HIF-1α expression result was “Significant inhibition”.
As to `N.N.O=C([O-])C1(C(=O)[O-])CCC1.[Pt+2]` [Carboplatin], the “reporter activity in Sentinel Lines” value in data set [16] is “increases in cell death and reporter activity”. Further, in [12], the “% TGI” value worked out at 39.50%, the “Final Tumor weight Day 38 (Mean)” value was 509.75, the “% Weight Change at Day 38” value turned out to be 16% and the “signs of tumor at the end of the experiment” value is listed as “developed tumors of significant sizes”.
As usually defined, the TGI is the reduction of tumour growth relative to the control group. Higher therefore signals a stronger effect on the tumour. For `O=P1(N(CCCl)CCCl)NCCCO1` (centres unmarked) [Cytoxan], the “% TGI” value in [2] worked out at 94.48%; in data set [2] (listed as Cytoxan100), 54.70%. Besides, the “Final Tumor weight Day 22 (Mean)” value in data set [2] (Caki-1) turned out to be 93.7; in data set [2] (Caki-1, listed as Cytoxan100), 769. Moreover, in data set [2] (Caki-1, Cytoxan 100 mg/kg alone, positive control), the TGI worked out at 92%.
With `C[C@H]1O[C@@H](O[C@H]2[C@@H](O)C[C@H](O[C@H]3[C@@H](O)C[C@H](O[C@H]4CC[C@@]5(C)[C@H](CC[C@@H]6[C@@H]5CC[C@]5(C)[C@@H](C7=CC(=O)OC7)CC[C@]65O)C4)O[C@@H]3C)O[C@@H]2C)C[C@H](O)[C@@H]1O` [Digitoxin], the LD50 p.o. in [17] is 0.1 mg/kg.
As for `C[C@H]1O[C@@H](O[C@H]2[C@@H](O)C[C@H](O[C@H]3[C@@H](O)C[C@H](O[C@H]4CC[C@@]5(C)[C@H](CC[C@@H]6[C@@H]5C[C@@H](O)[C@]5(C)[C@@H](C7=CC(=O)OC7)CC[C@]65O)C4)O[C@@H]3C)O[C@@H]2C)C[C@H](O)[C@@H]1O` [Digoxin], the IC50 in data set [3] is 37 nM. In addition, in data set [6], the “order of Na+/K+-ATPase-inhibition” value is recorded as “Ouabain<Digoxin<Proscillaridin”. Also, the “Volume-of-Distribution (VD)” value in data set [11] (in vivo) was 650 L.
Consider `Nc1ccn([C@@H]2O[C@H](CO)[C@@H](O)C2(F)F)c(=O)n1` [Gemcitabine, gemcitabine], for which, in [7] (setting [18]), the “Final Tumor weight Day 25 (Mean)” value worked out at 701.3. This compound also had a TGI in [7] (Panc-1, BNC-4 15 mg/ml s.c. pump, Gemcitabine 40 mg/kg q3d×4) of 65%. In addition, in data set [7] (mouse, in vivo), the “% TGI” value was 37.40%. Also, in [16], the “reporter activity in Sentinel Lines” value is “elevated reporter activity”.
As for `COc1cc2ncnc(Nc3ccc(F)c(Cl)c3)c2cc1OCCCN1CCOCC1` [Iressa], in [16], the “reporter activity in Sentinel Lines” value is given as “reduction in reporter activity”.
Take `O=C1c2c(O)ccc(O)c2C(=O)c2c(NCCNCCO)ccc(NCCNCCO)c21` [mitoxanthrone, mitoxantrone]: the “reporter activity in Sentinel Lines” value in data set [16] was “increases in cell death and reporter activity”.
The same measure, in the same setting: the value for `CC(=O)O[C@H]1C(=O)[C@@]2(C)[C@H]([C@H](OC(=O)c3ccccc3)[C@]3(O)C[C@H](OC(=O)[C@H](O)[C@@H](NC(=O)c4ccccc4)c4ccccc4)C(C)=C1C3(C)C)[C@]1(OC(C)=O)CO[C@@H]1C[C@@H]2O` [paclitaxel] was “increases in cell death and reporter activity”.
